According to patent publication US7947741B2, “Use and administration of bacterial efflux pump inhibitors” (Mpex Pharmaceuticals, Inc., priority 2004, dated 2011):
Values after ≈ are worked out from the molar mass of the structure shown.

What was measured:
[1] = tested on: P. aeruginosa PAM1570 (MexEF-OprN; gyrA (Thr83Ile)); assay: microbe, parasite or virus in culture; type: cell-based, Pseudomonas aeruginosa; conditions: PAM1570
From the text: In addition to increased efflux, resistance to fluoroquinolones may be due to target mutations (gyrase and topoisimerase IV) or due to combination of these two resistance mechanisms in a single bacterial cell.

[2] = tested on: outer membrane of P. aeruginosa strain PAM2005; assay: microbe, parasite or virus in culture; conditions: Pseudomonas aeruginosa, read-out: IC50, permeabilization of the outer membrane
[3] = tested on: P. aeruginosa PAM1020 (wt, basal level of MexAB-OprM); assay: Levofloxacin potentiation checkerboard assay (broth microdilution); type: cell-based, Pseudomonas aeruginosa
Description: (§1) Stock solutions were further diluted, according to the needs of a particular assay, in Mueller Hinton Broth (MHB). Stock solution was stored at −80° C.
(§2) The checkerboard assay was performed in microtiter plates. […] The result of these manipulations is that each well of the microtiter plate contains a unique combination of concentrations of the two agents. The assay was performed in MHB with a final bacterial inoculum of 5×10^5 CFU/ml (from an early-log phase culture). Microtiter plates were incubated during 20 h at 35° C. and were read using a microtiterplate reader (Molecular Devices) at 650 nm as well as visual observation using a microtiter plate reading mirror.
(§3) The test organisms used was PAM1020, which is a wild type strain of P. aeruginosa expressing the basal level of MexAB-OprM, as well as PAM1723, PAM1738, and PAM1753, overexpressing the MexAB-OprM, MexCD-OprJ, and MexEF-OprN pump, respectively.

[4] = tested on: P. aeruginosa PAM1753 (nfxC, overexpressing MexEF-OprN); assay: as above; type: cell-based, Pseudomonas aeruginosa; conditions: for Levofloxacin MIC in the presence of inhibitor: PAM1753
Description: as §1, §2, §3

[5] = tested on: 108 recent clinical isolates of P. aeruginosa obtained from cystic fibrosis patients; assay: Susceptibility of cystic fibrosis clinical isolates (broth-micro-dilution, NCCLS); type: cell-based, Pseudomonas aeruginosa; conditions: 108 CF isolates; pentamidine 20 μg/ml
[6] = tested on: P. aeruginosa PAM1626 (lacks all the three efflux pumps); assay: microbe, parasite or virus in culture; type: cell-based, Pseudomonas aeruginosa; conditions: for Levofloxacin MIC in the presence of inhibitor: PAM1626
[7] = tested on: P. aeruginosa PAM1723 (nalB, overexpressing MexAB-OprM); assay: microbe, parasite or virus in culture; type: cell-based, Pseudomonas aeruginosa
Description: as §1, §2, §3
Efflux pump inhibitory activity of several commercially available diamidine analogs was evaluated using the checkerboard assay of Example 1 against the strain of P. aeruginosa overexpressing the MexAB-OprM efflux pump.

clinical = conditions: human, in vivo
[8] = tested on: P. aeruginosa PAM2466 (MexAB-OprM, MexXY-OprM); assay: microbe, parasite or virus in culture; type: cell-based, Pseudomonas aeruginosa; conditions: PAM2466
Description: (§4) A set of strains that simultaneously over-expressed pairs or triplicates of pumps, e.g. PAM2302 and PAM2303 was tested. Simultaneous over-expression of efflux pumps has been recently detected in clinical strains.

[9] = tested on: P. aeruginosa PAM2282 (MexAB-OprM, MexEF-OprN); assay: microbe, parasite or virus in culture; type: cell-based, Pseudomonas aeruginosa; conditions: PAM2282
Description: as §4

[10] = tested on: P. aeruginosa PAM2281 (MexAB-OprM, MexEF-OprN); assay: microbe, parasite or virus in culture; type: cell-based, Pseudomonas aeruginosa; conditions: PAM2281
Description: as §4

[11] = tested on: P. aeruginosa PAM1438 (MexAB-OprM, MexCD-OprJ); assay: microbe, parasite or virus in culture; type: cell-based, Pseudomonas aeruginosa; conditions: PAM1438
Description: as §4

[12] = tested on: P. aeruginosa PAM2302 (MexAB-OprM, MexCD-OprJ, MexEF-OprN); assay: microbe, parasite or virus in culture; type: cell-based, Pseudomonas aeruginosa; conditions: PAM2302
Description: as §4

[13] = tested on: PAM1626 cells (lacking the efflux pump); assay: Leu-Nap accumulation assay; conditions: Leu-Nap 100 μg/ml, pentamidine 0 to 80 μg/ml
Description: Leu-Nap, which is not fluorescent in solution, is cleaved enzymatically inside the cells to produce highly fluorescent β-naphthylamine. The more Leu-Nap enters cells, the more fluorescence is produced. The rate of production of β-naphthylamine (recorded as an increase in fluorescence) is limited by the rate of entry of Leu-Nap into the cell. To assess the uptake of Leu-Nap, cultures of P. aeruginosa were grown to OD600 ˜1, washed and re-suspended in buffer at pH 7.0 containing K2HPO4 50 mM, MgSO4 1 mM, and Glucose 0.4% (Buffer A). Assays were performed in 96-well flat bottom black plates (Applied Scientific or Costar) in a final volume of 200 μl and were initiated by addition of Leu-Nap to suspensions of intact cells to a final concentration of 100-20 μg/ml. Fluorescence was measured on a fMAX spectrofluorometer (Molecular Devices) using excitation of 320 nm and emission of 460 nm.

[14] = tested on: P. aeruginosa PAM1738 (nfxB, overexpressing MexCD-OprJ); assay: microbe, parasite or virus in culture; type: cell-based, Pseudomonas aeruginosa
Description: as §1, §2, §3

[15] = cited from earlier work
[16] = Pseudomonas aeruginosa, read-out: MIC* (MIC for the efflux pump inhibitor)
[17] = 24 hours after 300 mg in a jet nebulizer

Structure (SMILES): N=C(N)c1ccc(OCCCCCOc2ccc(C(=N)N)cc2)cc1 [Pentamidine, pentamidine]
- Ciprofloxacin MIC w/pentamidine at 20 μg/ml [1]: 2 µg/mL
- Levofloxacin MIC w/pentamidine at 20 μg/ml [1]: 2 µg/mL
- IC50 [2]: > 64 µg/mL
- decrease of levofloxacin MIC ([3]; PAM1020 (wild type), pentamidine at 20 μg/ml): 8 fold
- Levofloxacin MIC in the presence of inhibitor ([3]; PAM1020, inhibitor 1.25 μg/ml): 0.25 µg/mL
- Levofloxacin MIC in the presence of inhibitor ([3]; PAM1020, inhibitor 2.5 μg/ml): 0.25 µg/mL
- Levofloxacin MIC in the presence of inhibitor ([3]; PAM1020, inhibitor 5 μg/ml): 0.125 µg/mL
- Levofloxacin MIC in the presence of inhibitor ([3]; PAM1020, inhibitor 10 μg/ml): 0.06 µg/mL
- Levofloxacin MIC in the presence of inhibitor ([3]; PAM1020, inhibitor 20 μg/ml): 0.03 µg/mL
- Levofloxacin MIC in the presence of inhibitor ([3]; PAM1020, inhibitor 40 μg/ml): 0.015 µg/mL
- MIC ([3]; Pseudomonas aeruginosa, PAM1020, inhibitor alone, read-out: MIC* (MIC for the efflux pump inhibitor)): 80 µg/mL
- Levofloxacin MIC in the presence of inhibitor ([4]; inhibitor 1.25 μg/ml): 2 µg/mL
- Levofloxacin MIC in the presence of inhibitor ([4]; inhibitor 2.5 μg/ml): 2 µg/mL
- Levofloxacin MIC in the presence of inhibitor ([4]; inhibitor 5 μg/ml): 2 µg/mL
- Levofloxacin MIC in the presence of inhibitor ([4]; inhibitor 10 μg/ml): 1 µg/mL
- Levofloxacin MIC in the presence of inhibitor ([4]; inhibitor 20 μg/ml): 0.25 µg/mL
- MIC [4, 16]: 40 µg/mL
- decrease of MIC50 of levofloxacin and ciprofloxacin [5]: 8 fold
- decrease of MIC90 of levofloxacin and ciprofloxacin [5]: 2 fold
- Levofloxacin MIC in the presence of inhibitor ([6]; inhibitor 1.25 μg/ml): 0.007 µg/mL
- Levofloxacin MIC in the presence of inhibitor ([6]; inhibitor 2.5 μg/ml): 0.007 µg/mL
- Levofloxacin MIC in the presence of inhibitor ([6]; inhibitor 5 μg/ml): 0.007 µg/mL
- decrease in levofloxacin MIC ([6]; PAM1626 lacking efflux pumps): Almost no decrease
- MIC [6, 16]: 10 µg/mL (≈ 29.4 µM)
- Levofloxacin MIC in the presence of inhibitor ([7]; PAM1723, inhibitor 1.25 μg/ml): 2 µg/mL
- Levofloxacin MIC in the presence of inhibitor ([7]; PAM1723, inhibitor 2.5 μg/ml): 1 µg/mL
- Levofloxacin MIC in the presence of inhibitor ([7]; PAM1723, inhibitor 5 μg/ml): 1 µg/mL
- Levofloxacin MIC in the presence of inhibitor ([7]; PAM1723, inhibitor 10 μg/ml): 0.5 µg/mL
- Levofloxacin MIC in the presence of inhibitor ([7]; PAM1723, inhibitor 10 μg/ml, listed as Pentamidine MP 601205): 1 µg/mL
- Levofloxacin MIC in the presence of inhibitor ([7]; PAM1723, inhibitor 20 μg/ml): 0.25 µg/mL
- Levofloxacin MIC in the presence of inhibitor ([7]; PAM1723, inhibitor 40 μg/ml): 0.06 µg/mL
- Levofloxacin MIC in the presence of inhibitor ([7]; PAM1723, inhibitor 80 μg/ml): 0.007 µg/mL
- MIC* (MIC for the efflux pump inhibitor) ([7]; PAM1723, inhibitor alone, listed as Pentamidine MP 601205): >81 µg/mL
- decrease of levofloxacin MIC ([7]; PAM1723, pentamidine at 20 μg/ml): 8 fold
- MIC ([7]; Pseudomonas aeruginosa, read-out: MIC* (MIC for the efflux pump inhibitor), PAM1723, inhibitor alone): > 80 µg/mL
- reduction of the levofloxacin MIC of PAM1723 (2 μg/ml) ([7]; inhibitor at 10 μg/ml to 20 μg/ml): at least 8 fold
- concentration at 7 day (clinical): ≤ 110 ng/mL
- half-life (clinical; 70 mg/4 ml, T1/2 (a), CF sputum, Aerogen Clinical, high dose, a phase 0-8 hours, Mean): 2.2 h
- half-life (clinical; 70 mg/4 ml, T1/2 (β), CF sputum, Aerogen Clinical, high dose, β phase, Mean): 24.4 h
- half-life (clinical; 300 mg/6 ml, T1/2 (a), CF sputum, Respirgard II, high dose, a phase 0-8 hours, Mean): 2.6 h
- half-life (clinical; 300 mg/6 ml, T1/2 (β), CF sputum, Respirgard II, high dose, β phase, Mean): 26.7 h
- AUC(0-t) (clinical; AUC (0 to 168)): 84000 ng·h/mL
- AUC(0-inf) (clinical; AUC (0 to infinity)): 84000 ng·h/mL
- AUC(0-t) (clinical; AUC (0 to last non-BLQ)): 83000 ng·h/mL
- Tmax (clinical; Tmax (0 to 168)): 1.8 h
- half-life (clinical; α phase half-life for elimination from sputum): 2.2 to 2.6 h
- Ciprofloxacin MIC w/pentamidine at 20 μg/ml [8]: 0.06 µg/mL
- Levofloxacin MIC w/pentamidine at 20 μg/ml [8]: 0.125 µg/mL
- Ciprofloxacin MIC w/pentamidine at 20 μg/ml [9]: 0.125 µg/mL
- Levofloxacin MIC w/pentamidine at 20 μg/ml [9]: 0.25 µg/mL
- Ciprofloxacin MIC w/pentamidine at 20 μg/ml [10]: 0.25 µg/mL
- Levofloxacin MIC w/pentamidine at 20 μg/ml [10]: 0.25 µg/mL
- Ciprofloxacin MIC w/pentamidine at 20 μg/ml [11]: 0.25 µg/mL
- Levofloxacin MIC w/pentamidine at 20 μg/ml [11]: 0.25 µg/mL
- Ciprofloxacin MIC w/pentamidine at 20 μg/ml [12]: 0.25 µg/mL
- Levofloxacin MIC w/pentamidine at 20 μg/ml [12]: 0.25 µg/mL
- effect on Leu-Nap uptake [13]: No such increase
- Levofloxacin MIC in the presence of inhibitor ([14]; PAM1738, inhibitor 1.25 μg/ml): 0.5 µg/mL
- Levofloxacin MIC in the presence of inhibitor ([14]; PAM1738, inhibitor 2.5 μg/ml): 0.25 µg/mL
- Levofloxacin MIC in the presence of inhibitor ([14]; PAM1738, inhibitor 5 μg/ml): 0.25 µg/mL
- Levofloxacin MIC in the presence of inhibitor ([14]; PAM1738, inhibitor 10 μg/ml): 0.25 µg/mL
- Levofloxacin MIC in the presence of inhibitor ([14]; PAM1738, inhibitor 20 μg/ml): 0.125 µg/mL
- Levofloxacin MIC in the presence of inhibitor ([14]; PAM1738, inhibitor 40 μg/ml): 0.03 µg/mL
- Levofloxacin MIC in the presence of inhibitor ([14]; PAM1738, inhibitor 80 μg/ml): 0.015 µg/mL
- decrease of levofloxacin MIC ([14]; PAM1738, pentamidine at 20 μg/ml): 4 fold
- MIC [14, 16]: > 80 µg/mL
- concentration in bronchial alveolar lavage fluid sediment [15, 17]: 705 ± 242 ng/mL
- concentration in bronchial alveolar lavage fluid supernatant [15, 17]: 23.2 ± 7.75 ng/mL
- trough plasma concentration ([15]; after 3 weeks of daily administration of 3 mg/kg): 61.1 ± 56.0 ng/mL
